Test results from patent US8846947B2, “Benzimidazoles and related analogs as sirtuin modulators” (GlaxoSmithKline LLC, priority 2008, dated 2014).

The compounds below were run against T1, SIRT1 (Homo sapiens, UniProt Q96EB6) (assay: Mass spectrometry based SIRT1 deacetylase activation assay (acetylated p53-derived peptide substrate)). Details: 0.5 μM peptide substrate, 120 μM βNAD+, 10 nM SIRT1, 25 minutes at 25° C.
T1 sequence (Q96EB6 1-747): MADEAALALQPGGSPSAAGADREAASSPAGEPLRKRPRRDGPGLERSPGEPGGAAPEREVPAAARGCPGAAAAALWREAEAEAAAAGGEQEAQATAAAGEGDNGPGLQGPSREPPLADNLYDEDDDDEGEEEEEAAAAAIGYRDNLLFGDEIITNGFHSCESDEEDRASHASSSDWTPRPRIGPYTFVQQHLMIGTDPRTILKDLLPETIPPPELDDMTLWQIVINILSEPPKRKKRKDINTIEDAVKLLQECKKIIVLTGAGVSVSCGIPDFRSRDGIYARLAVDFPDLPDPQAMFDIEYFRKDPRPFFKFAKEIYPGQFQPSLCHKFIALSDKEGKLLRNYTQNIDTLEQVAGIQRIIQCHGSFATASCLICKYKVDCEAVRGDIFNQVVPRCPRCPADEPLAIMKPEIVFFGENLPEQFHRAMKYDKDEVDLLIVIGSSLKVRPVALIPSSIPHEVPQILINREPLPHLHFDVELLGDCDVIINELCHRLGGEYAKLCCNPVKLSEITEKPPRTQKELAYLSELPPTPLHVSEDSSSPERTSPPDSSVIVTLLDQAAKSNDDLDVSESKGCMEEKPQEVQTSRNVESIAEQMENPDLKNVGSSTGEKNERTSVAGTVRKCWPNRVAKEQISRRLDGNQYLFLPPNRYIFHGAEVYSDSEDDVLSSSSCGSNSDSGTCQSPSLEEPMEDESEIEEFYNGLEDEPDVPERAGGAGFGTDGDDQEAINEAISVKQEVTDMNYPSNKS
Format: biochemical
`O=C(Nc1nccs1)c1cc(F)cc2nc(-c3cc(F)ccc3C(F)F)[nH]c12` [Compound 835] was tested, and the EC1.5 was “A (EC1.5<1.0 uM)” and the “Fold Act. (percent maximum fold activation)” value was “A (Fold activation >200%)”.
With `Cc1cnc(NC(=O)c2cc(F)cc3nc(-c4cc(F)ccc4C(F)F)[nH]c23)s1` [Compound 836] the EC1.5 was “A (EC1.5<1.0 uM)” and the “Fold Act. (percent maximum fold activation)” value was “A (Fold activation >200%)”.
With `O=C(Nc1ccccn1)c1cc(F)cc2nc(-c3cc(F)ccc3C(F)F)[nH]c12` [Compound 837] the EC1.5 was “A (EC1.5<1.0 uM)” and the “Fold Act. (percent maximum fold activation)” value was “A (Fold activation >200%)”.
`O=C(Nc1ccccn1)c1cccc2[nH]c(-c3ccc(CN4CCCC4)cc3C(F)(F)F)nc12` [Compound 838, N-(pyridin-2-yl)-2-(4-(pyrrolidin-1-ylmethyl)-2-(trifluoromethyl)phenyl)-1H-benzo[d]imidazole-4-carboxamide] was tested, and the EC1.5 was “A (EC1.5<1.0 uM)” and the “Fold Act. (percent maximum fold activation)” value was “A (Fold activation >200%)”.
For `O=C(Nc1ccccn1)c1cc(F)cc2[nH]c(-c3ccc(OC[C@@H](O)CO)cc3C(F)F)nc12` [Compound 840], the EC1.5 was “A (EC1.5<1.0 uM)” and the “Fold Act. (percent maximum fold activation)” value was “A (Fold activation >200%)”.
For `O=C(Nc1cccnc1)c1cc(F)cc2[nH]c(-c3ccc(OC[C@@H](O)CO)cc3C(F)F)nc12` [Compound 841], the EC1.5 was “A (EC1.5<1.0 uM)” and the “Fold Act. (percent maximum fold activation)” value was “A (Fold activation >200%)”.
In the case of `Cc1ncccc1-c1nc2c(C(=O)Nc3nc(CN4CCOCC4)cs3)cccc2[nH]1` [Compound 842], the EC1.5 is reported as “A (EC1.5<1.0 uM)” and the “Fold Act. (percent maximum fold activation)” value is reported as “A (Fold activation >200%)”.
`Cc1ccc(-c2nc3c(C(=O)Nc4nc(CN5CCOCC5)cs4)cccc3[nH]2)cn1` [Compound 843] was tested, and the EC1.5 was “A (EC1.5<1.0 uM)” and the “Fold Act. (percent maximum fold activation)” value was “A (Fold activation >200%)”.
For `Cc1cc(-c2nc3c(C(=O)Nc4nc(CN5CCOCC5)cs4)cccc3[nH]2)ccn1` [Compound 844], the EC1.5 was “A (EC1.5<1.0 uM)” and the “Fold Act. (percent maximum fold activation)” value was “A (Fold activation >200%)”.
`O=C(Nc1nc(CN2CCOCC2)cs1)c1cccc2[nH]c(-c3ccccc3C(F)F)nc12` [Compound 845] was tested, and the EC1.5 was “A (EC1.5<1.0 uM)” and the “Fold Act. (percent maximum fold activation)” value was “A (Fold activation >200%)”.
With `O=C(Nc1nc(CN2CCOCC2)cs1)c1cccc2[nH]c(-c3ccc(F)cc3C(F)F)nc12` [Compound 846] the EC1.5 was “A (EC1.5<1.0 uM)” and the “Fold Act. (percent maximum fold activation)” value was “A (Fold activation >200%)”.
`Cc1nc(C)c(-c2nc3c(C(=O)Nc4cccc(CN5CCOCC5)n4)cccc3[nH]2)s1` [Compound 847] was tested, and the EC1.5 was “A (EC1.5<1.0 uM)” and the “Fold Act. (percent maximum fold activation)” value was “A (Fold activation >200%)”.
For `Cc1nc(C)c(-c2nc3c(C(=O)Nc4nc(CN5CCOCC5)cs4)cccc3[nH]2)s1` [Compound 848], the EC1.5 was “A (EC1.5<1.0 uM)” and the “Fold Act. (percent maximum fold activation)” value was “A (Fold activation >200%)”.
With `O=C(Nc1nc(CN2CCOCC2)cs1)c1cccc2[nH]c(-c3ccc(Cl)cc3C(F)F)nc12` [Compound 849] the EC1.5 was “A (EC1.5<1.0 uM)” and the “Fold Act. (percent maximum fold activation)” value was “A (Fold activation >200%)”.
For `O=C(Nc1cccc(CN2CCOCC2)n1)c1cccc2[nH]c(-c3cccnc3)nc12` [Compound 850], the EC1.5 was “A (EC1.5<1.0 uM)” and the “Fold Act. (percent maximum fold activation)” value was “A (Fold activation >200%)”.
In the case of `O=C(Nc1cccc(CN2CCOCC2)n1)c1cccc2[nH]c(-c3cccc(F)c3)nc12` [Compound 851], the EC1.5 is reported as “A (EC1.5<1.0 uM)” and the “Fold Act. (percent maximum fold activation)” value is reported as “A (Fold activation >200%)”.
`O=C(Nc1cccc(CN2CCOCC2)n1)c1cccc2[nH]c(-c3cc(F)cc(F)c3)nc12` [Compound 852] was tested, and the EC1.5 was “A (EC1.5<1.0 uM)” and the “Fold Act. (percent maximum fold activation)” value was “A (Fold activation >200%)”.
For `O=C(Nc1cccc(CN2CCOCC2)n1)c1cccc2[nH]c(-c3cccc(Cl)c3)nc12` [Compound 853], the EC1.5 was “A (EC1.5<1.0 uM)” and the “Fold Act. (percent maximum fold activation)” value was “A (Fold activation >200%)”.
`O=C(Nc1cccc(CN2CCOCC2)n1)c1cccc2[nH]c(-c3ccccc3F)nc12` [Compound 854] was tested, and the EC1.5 was “A (EC1.5<1.0 uM)” and the “Fold Act. (percent maximum fold activation)” value was “A (Fold activation >200%)”.
`O=C(Nc1cccc(CN2CCOCC2)n1)c1cccc2[nH]c(-c3cc(F)ccc3F)nc12` [Compound 855] was tested, and the EC1.5 was “A (EC1.5<1.0 uM)” and the “Fold Act. (percent maximum fold activation)” value was “A (Fold activation >200%)”.
`O=C(Nc1cccc(N2CCOCC2)n1)c1cccc2[nH]c(-c3ccc(Cl)cc3C(F)(F)F)nc12` [Compound 868, 2-(4-chloro-2-(trifluoromethyl)phenyl)-N-(6-morpholinopyridin-2-yl)-1H-benzo[d]imidazole-4-carboxamide] was tested, and the EC1.5 was “A (EC1.5<1.0 uM)” and the “Fold Act. (percent maximum fold activation)” value was “A (Fold activation >200%)”.
With `O=C(Nc1ccc(CN2CCCC2)cc1)c1cccc2[nH]c(-c3ccc(CN4CCCC4)cc3C(F)(F)F)nc12` [Compound 869, 2-(4-(pyrrolidin-1-ylmethyl)-2-(trifluoromethyl)phenyl)-N-(4-(pyrrolidin-1-ylmethyl)phenyl)-1H-benzo[d]imidazole-4-carboxamide] the EC1.5 was “A (EC1.5<1.0 uM)” and the “Fold Act. (percent maximum fold activation)” value was “A (Fold activation >200%)”.
In the case of `Cc1ccc(NC(=O)c2cccc3[nH]c(-c4ccc(CN5CCCC5)cc4C(F)(F)F)nc23)cc1` [Compound 870, 2-(4-(pyrrolidin-1-ylmethyl)-2-(trifluoromethyl)phenyl)-N-p-tolyl-1H-benzo[d]imidazole-4-carboxamide], the EC1.5 is reported as “A (EC1.5<1.0 uM)” and the “Fold Act. (percent maximum fold activation)” value is reported as “A (Fold activation >200%)”.
With `O=C(Nc1nccs1)c1cccc2[nH]c(-c3cc(CN4CCCC4)ccc3C(F)(F)F)nc12` [Compound 871, 2-(5-(pyrrolidin-1-ylmethyl)-2-(trifluoromethyl)phenyl)-N-(thiazol-2-yl)-1H-benzo[d]imidazole-4-carboxamide] the EC1.5 was “B (EC1.5 1-25 uM)” and the “Fold Act. (percent maximum fold activation)” value was “A (Fold activation >200%)”.
`O=C(Nc1ccccn1)c1cccc2[nH]c(-c3cc(CN4CCCC4)ccc3C(F)(F)F)nc12` [Compound 872, N-(pyridin-2-yl)-2-(5-(pyrrolidin-1-ylmethyl)-2-(trifluoromethyl)phenyl)-1H-benzo[d]imidazole-4-carboxamide] was tested, and the EC1.5 was “A (EC1.5<1.0 uM)” and the “Fold Act. (percent maximum fold activation)” value was “A (Fold activation >200%)”.
With `O=C(Nc1ccc(CN2CCCC2)cc1)c1cccc2[nH]c(-c3cc(CN4CCCC4)ccc3C(F)(F)F)nc12` [Compound 873, 2-(5-(pyrrolidin-1-ylmethyl)-2-(trifluoromethyl)phenyl)-N-(4-(pyrrolidin-1-ylmethyl)phenyl)-1H-benzo[d]imidazole-4-carboxamide] the EC1.5 was “A (EC1.5<1.0 uM)” and the “Fold Act. (percent maximum fold activation)” value was “A (Fold activation >200%)”.
